From patent US20230277549A1, “NOTCH SIGNALING INHIBITORS FOR TREATING OBESITY AND METABOLIC DISORDERS” (Purdue Research Foundation, priority 2020, published 2023)
“Also recorded” adds a separate entry of the source.

Key:
[1] = test system: Notch signaling (target gene Hes1); test: Notch inhibition: Hes1 mRNA by real-time qPCR in 3T3-L1 preadipocytes; assay type: cell-based; conditions: for mRNA expression of Hes1: 3T3-L1 preadipocytes, 1 μM, 12 h, real-time qPCR; for dose dependence of the inhibitory effect on Hes1 expression: 0.5, 1 and 10 μM
Method: (§1) Cell culture and drug treatment. 3T3-L1 preadipocytes were cultured in Dulbecco's modified Eagle medium (DMEM) supplemented with 10% fetal bovine serum (FBS) and 1% antibiotics (penicillin and streptomycin) at 37° C., 5% CO2, and 95% relative humidity. The medium was routinely changed every two days and cells were separated by trypsin before reaching confluency. Beige adipocyte differentiation was induced by treating confluent preadipocytes with the adipogenic induction medium containing DMEM, 10% FBS, 0.5 mM isobutylmethylxanthine, 1 μM dexamethasone, 1.75 μM insulin, and 1 μM rosiglitazone. Three days after induction, medium was switched to the differentiation medium containing DMEM, 10% FBS, 850 nM insulin, and 10 nM triiodothyronine until adipocytes matured. For the drug treatment, a series of GSIs were added to the cells in culture medium at the same final drug concentrations of 0.5, 1, and 10 μM, respectively, and cells were induced for differentiation.
(§2) RNA extraction, cDNA synthesis, and real-time qPCR. Total RNA was extracted from cells using TRIzol (Thermo Fisher Scientific, Waltham, Mass., USA) in accordance with the manufacturer's protocol. RNA was treated with RNase-free DNase I to remove contaminating genomic DNA and the purity as well as concentration of extracted RNA were determined by a spectrophotometer NanoDrop 2000c (Thermo Fisher Scientific, Waltham, Mass., USA). Subsequently, 2 μg of RNA was reverse transcribed to cDNA using random hexamer primers with M-MLV reverse transcriptase (Invitrogen, Carlsbad, Calif., USA). Real-time qPCR was performed in the Roche Light Cycler 480 PCR system (Roche, Basel, Switzerland) with SYBR Green master mix.
(§3) The 2^−ΔΔCT method was used to analyze the relative changes of gene expression after normalization to the expression of β-Actin.
To determine the impact of GSIs on inhibition of Notch signaling, 3T3-L1 preadipocytes were treated with a series of GSIs (see Table 1) at a concentration of 1 μM and the change in mRNA expression of Hes1, a Notch downstream transcriptional target gene, was evaluated using real-time qPCR.
To further examine the relationship between drug concentration and inhibitory effect of GSIs, cells were treated with the four most promising inhibitors (i.e., RO4929097, PF-03084014, LY3039478, and BMS-906024) at three gradient concentrations (0.5, 1, and 10 μM).
Effect of RO4929097-PLGA NPs on the Notch signaling target gene. 3T3-L1 preadipocytes were treated with DMSO, PLGA NPs (0.1 mg/mL), DBZ (10 μM), RO4929097 (1 μM) or RO4929097-PLGA NPs (0.1 mg/ml) for 12 h at 37° C. in a 5% CO2 incubator. The Notch target Hes1 mRNA expression was analyzed by qRT-PCR (FIG. 8). Each bar is the mean±SEM of 4 to 5 replicates in each group and the data were analyzed by one-way ANOVA followed by Tukey's post hoc comparison test. Asterisks refer to statistical difference between the indicated treatment groups (*p<0.05, **p<0.01, and ***p<0.001).

[2] = test system: differentiated 3T3-L1 cells; test: mRNA expression of adipogenic, mitochondrial and browning marker genes by real-time qPCR; assay type: cell-based; conditions: for increase of mRNA expression of Tmem26: 0.5, 1 and 10 μM, highest dose significant versus control
Method: as §1, §2, §3

[3] = test system: UCP1, PPARγ, and C/EBPα in differentiated 3T3-L1 cells; test: Western blot of UCP1, PPARγ and C/EBPα protein; assay type: cell-based; conditions: for protein expression of UCP1 / decrease of the upregulated UCP1 protein expression: western blot; for decrease of the upregulated UCP1 protein expression: increasing the concentration from 1 to 10 μM
Method: as §1
Protein extraction and western blotting. Total protein was extracted from cells using RIPA buffer containing 25 mM Tris-HCl (pH 8.0), 150 mM NaCl, 1 mM EDTA, 0.5% NP-40, 0.5% sodium deoxycholate and 0.1% SDS. Protein concentrations were determined by Pierce BCA Protein Assay Reagent (Pierce Biotechnology, Waltham, Mass., USA). Proteins were separated by SDS-PAGE and transferred to a polyvinylidene fluoride membrane (Millipore, Burlington, Mass., USA). The membrane was then blocked with 5% fat-free milk for 1 h at room temperature and incubated with primary antibodies in 5% milk overnight at 4° C. as well as secondary antibodies for 1 h at room temperature. Primary antibodies, including UCP1 (1:1000 dilution), C/EBPα (1:500 dilution), PPARγ (1:500 dilution), and β-Actin (1:5000 dilution), were used. HRP-conjugated secondary antibodies, including anti-rabbit and anti-mouse IgG, were also used at a dilution of 1:10,000. A luminol reagent for enhanced chemiluminescence detection of western blots (Santa Cruz Biotechnology, Dallas, Tex., USA) was employed and signals were detected with a FluorChem R imaging system (ProteinSimple, San Jose, Calif., USA).
The protein expression of adipogenic markers, such as PPARγ and C/EBPα, was also evaluated.

[4] = test system: UCP1 in differentiated 3T3-L1 cells; test: UCP1 immunofluorescence staining; assay type: cell-based; conditions: 1 μM
Method: Immunofluorescence staining. After washing with phosphate-buffered saline (PBS), cells were fixed with 4% PFA, quenched with glycine (100 mM glycine and 0.1% sodium azide in PBS), and blocked with PBS containing 2% BSA, 5% goat serum, and 0.2% Triton X-100 for 1 h at room temperature. Subsequently, cells were incubated with the UCP1 antibody diluted at 1:500 in the same blocking buffer overnight at 4° C. and the Alexa Fluor® 488 conjugated goat anti-rabbit IgG (1:1000 dilution) for 1 h at room temperature. Nuclei were counterstained with 4′,6-diamidino-2-phenylindole (DAPI, 1 μg/mL), which was premixed with the secondary antibody.

3T3-L1 preadipocytes = test: Cell viability, MTS assay; conditions: 0.5, 1 and 10 μM, 12 h
Method: Assessment of cell viability. In vitro cell viability after incubation with various GSIs at three concentrations was determined using an MTS assay, which is based on the mitochondrial conversion of a tetrazolium salt. 3T3-L1 preadipocytes were seeded onto 96-well plates at a density of 1×10^4 cells per well and cultured in 5% CO2 at 37° C. for 48 h. GSIs were then added to the cells in culture medium at the same final drug concentrations of 0.5, 1, and 10 μM, respectively, and cells were further incubated at 37° C. for 12 h. Subsequently, 20 μL of CellTiter 96® AQueous one solution reagent was added to each well in 100 μL of culture medium and incubated at 37° C. in a humidified, 5% CO2 atmosphere for 2 h. The absorbance was measured using a Tecan Spark™ 10M microplate reader (Tecan, Mannedorf, Switzerland) at a wavelength of 490 nm with background subtraction at 680 nm. Cells incubated with 0.1% Triton X-100 and dimethyl sulfoxide (DMSO) in culture medium served as positive and negative controls, respectively.
Effects of GSIs on cell viability. To investigate effects of GSIs on cell viability, 3T3-L1 preadipocytes were treated with GSIs at three gradient concentrations (0.5, 1, and 10 μM) for 12 h.

[5] = test system: Notch (Hes1) in human tumor-derived cells; conditions: cited from earlier work
[6] = all the concentrations (0.5, 1, 10 μM)

SMILES	mRNA expression of Hes1 [1]	dose dependence of the inhibitory effect on Hes1 expression [1]	increase of mRNA expression of Tmem26 [2]	protein expression of UCP1 ([3]; 1 μM)	cell viability / cytotoxicity (3T3-L1 preadipocytes)	other results
NC(=O)[C@@H](CCC(F)(F)F)N(Cc1ccc(-c2ncon2)cc1F)S(=O)(=O)c1ccc(Cl)cc1 [BMS-708163]	did not significantly decrease; also recorded: relatively moderate inhibitory effect					
CN1C(=O)[C@@H](NC(=O)[C@H](CCC(F)(F)F)[C@H](CCC(F)(F)F)C(N)=O)N=C(c2ccccc2)c2ccccc21 [BMS-906024]	significantly inhibited	more significant with increasing the drug concentration	in a dose-dependent manner	minimal impact		protein expression of C/EBPα ([3]; 1 μM): significantly upregulated; UCP1 positive adipocytes (UCP1 expression) [4]: minimal efficiency
CC(C)[C@H](O)C(=O)N[C@@H](C)C(=O)N[C@@H]1C(=O)N(C)CCc2ccccc21 [LY450139]	did not significantly decrease					
C[C@H](NC(=O)CCC(F)(F)F)C(=O)N[C@@H]1C(=O)N(CCO)c2ncccc2-c2ccccc21 [LY3039478]	significantly inhibited	more significant with increasing the drug concentration	in a dose-dependent manner	significant upregulation	did not result in any significant cytotoxicity	mRNA expression of Cox5B ([2]; 10 μM): Significant upregulation; mRNA expression of Ppargc1α ([2]; 10 μM): significant changes; protein expression of C/EBPα [3, 6]: significantly upregulated; protein expression of UCP1 ([3]; high concentration of 10 μM): did not significantly change
O=C(O)CC[C@H]1CC[C@@](c2cc(F)ccc2F)(S(=O)(=O)c2ccc(Cl)cc2)CC1 [MK-0752]	did not significantly decrease; also recorded: relatively moderate inhibitory effect					
CCC[C@H](N[C@H]1CCc2cc(F)cc(F)c2C1)C(=O)Nc1cn(C(C)(C)CNCC(C)(C)C)cn1 [PF-03084014]	significantly inhibited	more significant with increasing the drug concentration	in a dose-dependent manner	significantly upregulated	decreased with increasing the drug concentration	mRNA expression of Cox5B ([2]; 1 μM): Significant upregulation; mRNA expression of Ppargc1α ([2]; 10 μM): significant changes; decrease of the upregulated UCP1 protein expression [3]: around 50%
CC(C)(C(=O)NCC(F)(F)C(F)(F)F)C(=O)N[C@@H]1C(=O)Nc2ccccc2-c2ccccc21 [RO4929097]	significantly inhibited	did not result in a dose-dependent depression		significantly upregulated	decreased with increasing the drug concentration	mRNA expression of Cox5B [2, 6]: increased; protein expression of C/EBPα [3, 6]: significantly upregulated; decrease of the upregulated UCP1 protein expression [3]: around 50%; concentration above which no further reduction in mRNA level of Hes1 [5]: > 1 µM; concentration above which no further reduction in protein level of Hes1 [5]: higher than 0.5 μM; concentration at which dose-dependent inhibition of Notch begins [5]: ≥ 0.1 µM
